Each structure is given as a SMILES string. pIC50: −log10 of the molar value.

One experiment addresses T1, recombinant human GST-SYK (Homo sapiens, UniProt P43405).
T1 construct: purchased Carna Biosciences 08-176
In words: Homogeneous Time-Resolved Fluorescence (HTRF) assay for the recombinant human Syk enzyme. As to conditions: HTRF assay, recombinant human GST-SYK; IC50 given as class symbols; read-out: rhSYK Activity. The format is biochemical. The procedure, abridged: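 Phosphotyrosine product from a biotinylated Syk substrate peptide was detected by HTRF (europium antibody/SA-APC, read after 30 min) following a 45-minute room-temperature reaction at 25 μM ATP, with […] preincubated 10 minutes with inhibitor.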
In general terms: In TR-FRET formats the signal depends on donor and acceptor labels being close together.
Take `Cc1cc(Nc2nccc(C(F)(F)F)n2)cc(-c2ccc(N3CCC([C@@H]4CCCC[C@H]4C(=O)O)CC3)nc2)c1` [Example 7.147, (1R,2S)-2-{1-[5-(3-methyl-5-{[4-(trifluoromethyl)pyrimidin-2-yl]amino}phenyl)pyridin-2-yl]piperidin-4-yl}cyclohexanecarboxylic acid]: the pIC50 was greater than 7.00.

Turning to `Cc1cc(Nc2nccc(C(F)(F)F)n2)cc(-c2ccc(NCC3CCC(C(=O)O)CC3)nc2)c1` (stereo not shown) [Example 7.148, 4-({[5-(3-methyl-5-{[4-(trifluoromethyl)pyrimidin-2-yl]amino}phenyl)pyridin-2-yl]amino}methyl)cyclohexanecarboxylic acid], the pIC50 is greater than 7.00.

`Cc1cc(Nc2nccc(C(F)(F)F)n2)cc(-c2ccc(N3CCC[C@@H](C(=O)N4CCC[C@@H](C(=O)O)C4)C3)nc2)c1` [Example 7.149, (3R)-1-({(3R)-1-[5-(3-methyl-5-{[4-(trifluoromethyl)pyrimidin-2-yl]amino}phenyl)pyridin-2-yl]piperidin-3-yl}carbonyl)piperidine-3-carboxylic acid]: the pIC50 is greater than 7.00.

`Cc1cc(Nc2nccc(C(F)(F)F)n2)cc(-c2ccc(N3CCC[C@@H](C(=O)N4CCC[C@H](C(=O)O)C4)C3)nc2)c1` [Example 7.150, (3S)-1-({(3R)-1-[5-(3-methyl-5-{[4-(trifluoromethyl)pyrimidin-2-yl]amino}phenyl)pyridin-2-yl]piperidin-3-yl}carbonyl)piperidine-3-carboxylic acid]: the pIC50 was greater than 7.00.

Consider `Cc1cc(Nc2nccc(C(F)(F)F)n2)cc(-c2ccc(N3CCC(N4CC(C(=O)O)CC4=O)CC3)nc2)c1` (stereo not shown) [Example 7.151, 1-{1-[5-(3-methyl-5-{[4-(trifluoromethyl)pyrimidin-2-yl]amino}phenyl)pyridin-2-yl]piperidin-4-yl}-5-oxopyrrolidine-3-carboxylic acid], for which the pIC50 was greater than 7.00.

With `Cc1cc(Nc2ncc(Br)c(C(F)(F)F)n2)cc(-c2ccc(NC(C)(C)C(=O)O)nc2)c1` [Example 7.152], the pIC50 is greater than 7.00.

Regarding `Cc1cc(Nc2nccc(C(F)(F)F)n2)cc(-c2ccc(N(C)CC(N)=O)nc2)c1` [Example 7.153, N~2~-methyl-N~2~-[5-(3-methyl-5-{[4-(trifluoromethyl)pyrimidin-2-yl]amino}phenyl)pyridin-2-yl]glycinamide], the pIC50 was greater than 7.00.

Take `Cc1cc(Nc2nccc(C(F)(F)F)n2)cc(-c2ccc(N[C@H](C)C(=O)O)nc2)c1` [Example 7.154, N-[5-(3-methyl-5-{[4-(trifluoromethyl)pyrimidin-2-yl]amino}phenyl)pyridin-2-yl]-D-alanine]: the pIC50 was greater than 7.00.

Regarding `Cc1cc(Nc2nccc(C(F)(F)F)n2)cc(-c2ccc(N[C@@H](Cc3ccccc3)C(=O)O)nc2)c1` [Example 7.155, N-[5-(3-methyl-5-{[4-(trifluoromethyl)pyrimidin-2-yl]amino}phenyl)pyridin-2-yl]-L-phenylalanine], the pIC50 was greater than 7.00.

On to `Cc1cc(Nc2nccc(C(F)(F)F)n2)cc(-c2ccc(NC3CCNC3=O)nc2)c1` (stereo not shown) [Example 7.157, 3-{[5-(3-methyl-5-{[4-(trifluoromethyl)pyrimidin-2-yl]amino}phenyl)pyridin-2-yl]amino}pyrrolidin-2-one], for which the pIC50 was greater than 7.00.

For the compound `Cc1cc(Nc2ncc(F)c(C3CC3)n2)cc(-c2ccc(NC3CCNC3=O)nc2)c1` (stereo not shown) [Example 7.158, 3-[(5-{3-[(4-cyclopropyl-5-fluoropyrimidin-2-yl)amino]-5-methylphenyl}pyridin-2-yl)amino]pyrrolidin-2-one], the pIC50 was greater than 7.00.

Consider `Cc1cc(Nc2ncc(F)c(C3CC3)n2)cc(-c2ccc(NC(C)(C)C(=O)O)nc2)c1` [Example 7.159, N-(5-{3-[(4-cyclopropyl-5-fluoropyrimidin-2-yl)amino]-5-methylphenyl}pyridin-2-yl)-2-methylalanine], for which the pIC50 was greater than 7.00.

Regarding `O=C(O)[C@@H]1CCN1c1ccc(-c2cc(F)cc(Nc3ncc(F)c(C4CC4)n3)c2)cn1` [Example 7.160, (2S)-1-(5-{3-[(4-cyclopropyl-5-fluoropyrimidin-2-yl)amino]-5-fluorophenyl}pyridin-2-yl)azetidine-2-carboxylic acid], the pIC50 is greater than 7.00.

Take `Cc1cc(Nc2ncc(F)c(C3CC3)n2)cc(-c2ccc(N3CC[C@H]3C(=O)O)nc2)c1` [Example 7.161, (2S)-1-(5-{3-[(4-cyclopropyl-5-fluoropyrimidin-2-yl)amino]-5-methylphenyl}pyridin-2-yl)azetidine-2-carboxylic acid]: the pIC50 was greater than 7.00.

For `COC(=O)CS(=O)(=O)Nc1ccc(-c2cc(C)cc(Nc3nccc(C(F)(F)F)n3)c2)cn1` [Example 8.1, Methyl {[5-(3-methyl-5-{[4-(trifluoromethyl)pyrimidin-2-yl]amino}phenyl)pyridin-2-yl]sulfamoyl}acetate], the pIC50 is greater than 7.00.

For `Cc1cc(Nc2nccc(C(F)(F)F)n2)cc(-c2ccc(NS(=O)(=O)CC(=O)O)nc2)c1` [Example 8.2, {[5-(3-Methyl-5-{[4-(trifluoromethyl)pyrimidin-2-yl]amino}phenyl)pyridin-2-yl]sulfamoyl}acetic acid], the pIC50 was greater than 7.00.

As for `COC(=O)CC(=O)Nc1ccc(-c2cc(C)cc(Nc3nccc(C(F)(F)F)n3)c2)cn1` [Example 8.3, methyl 3-{[5-(3-methyl-5-{[4-(trifluoromethyl)pyrimidin-2-yl]amino}phenyl)pyridin-2-yl]amino}-3-oxopropanoate], the pIC50 was greater than 7.00.

Regarding `Cc1cc(Nc2nccc(C(F)(F)F)n2)cc(-c2ccc(NC(=O)CC(=O)O)nc2)c1` [Example 8.4, 3-{[5-(3-methyl-5-{[4-(trifluoromethyl)pyrimidin-2-yl]amino}phenyl)pyridin-2-yl]amino}-3-oxopropanoic acid], the pIC50 was greater than 7.00.

`Cc1cc(Nc2nccc(C(F)(F)F)n2)cc(-c2ccc(C(C)(O)CO)nc2)c1` (stereo not shown) [Example 9.1, 2-[5-(3-Methyl-5-{[4-(trifluoromethyl)pyrimidin-2-yl]amino}phenyl)pyridin-2-yl]propane-1,2-diol]: the pIC50 was greater than 7.00.

As to `Cc1cc(Nc2nccc(C(F)(F)F)n2)cc(-c2ccnc(C3(O)CCC(=O)CC3)c2)c1` [Example 9.2, 4-Hydroxy-4-[4-(3-methyl-5-{[4-(trifluoromethyl)pyrimidin-2-yl]amino}phenyl)pyridin-2-yl]cyclohexanone], the pIC50 is greater than 7.00.

As for `Cc1cc(Nc2nccc(C(F)(F)F)n2)cc(-c2ccnc([C@]3(O)CC[C@@H](O)CC3)c2)c1` [Example 9.3, Cis-1-[4-(3-methyl-5-{[4-(trifluoromethyl)pyrimidin-2-yl]amino}phenyl)pyridine-2-yl]cyclohexane-1,4-diol], the pIC50 is greater than 7.00.

Regarding `Cc1cc(Nc2nccc(C(F)(F)F)n2)cc(-c2cncc(C3(O)CCC(C(=O)O)C3)c2)c1` (stereo not shown) [Example 9.5, 3-Hydroxy-3-[5-(3-methyl-5-{[4-(trifluoromethyl)pyrimidin-2-yl]amino}phenyl)pyridin-3-yl]cyclopentanecarboxylic acid], the pIC50 is greater than 7.00.

With `Cc1cc(Nc2nccc(C3CC3)n2)cc(-c2ccc(C(C)(O)[C@H]3CC[C@H](C(=O)O)CC3)nc2)c1` (stereo partly drawn) [Example 9.6, trans-4-(1-(5-(3-(4-cyclopropylpyrimidin-2-ylamino)-5-methylphenyl)pyridin-2-yl)-1-hydroxyethyl)cyclohexanecarboxylic acid], the pIC50 is greater than 7.00.

Regarding `Cc1cc(Nc2nccc(C(F)(F)F)n2)cc(-c2cncc(C3(O)CCNCC3)c2)c1` [Example 9.7, 4-[5-(3-Methyl-5-{[4-(trifluoromethyl)pyrimidin-2-yl]amino}phenyl)pyridin-3-yl]piperidin-4-ol], the pIC50 is greater than 7.00.

Take `Cc1cc(Nc2nccc(C(F)(F)F)n2)cc(-c2ccc([C@]3(O)CC[C@@](C)(C(=O)O)CC3)nc2)c1` [Example 9.11, cis-4-hydroxy-1-methyl-4-[5-(3-methyl-5-{[4-(trifluoromethyl)pyrimidin-2-yl]amino}phenyl)pyridin-2-yl]cyclohexanecarboxylic acid]: the pIC50 is greater than 7.00.

As for `CC1(C(=O)O)CCC(O)(c2ccc(-c3cc(Nc4nccc(C(F)(F)F)n4)cc(C(F)F)c3)cn2)CC1` (stereo not drawn) [Example 9.12, cis-4-{5-[3-(difluoromethyl)-5-{[4-(trifluoromethyl)pyrimidin-2-yl]amino}phenyl]pyridin-2-yl}-4-hydroxy-1-methylcyclohexanecarboxylic acid], the pIC50 was greater than 7.00.

For the compound `Cc1cc(Nc2nccc(C(F)(F)F)n2)cc(-c2ccc(C(C)(O)c3ccc(C(=O)O)cc3)nc2)c1` (stereo not shown) [Example 9.20, 4-{1-hydroxy-1-[5-(3-methyl-5-{[4-(trifluoromethyl)pyrimidin-2-yl]amino}phenyl)pyridin-2-yl]ethyl}benzoic acid], the pIC50 is greater than 7.00.

As to `Cc1cc(Nc2nccc(C(F)(F)F)n2)cc(-c2ccc(C3(O)CCCC(C(=O)O)C3)nc2)c1` (stereo not shown) [Example 9.21, 3-hydroxy-3-[5-(3-methyl-5-{[4-(trifluoromethyl)pyrimidin-2-yl]amino}phenyl)pyridin-2-yl]cyclohexanecarboxylic acid], the pIC50 is greater than 7.00.

In the case of `Cc1cc(Nc2nccc(C(F)(F)F)n2)cc(-c2ccc(C3(O)CCC(C(=O)O)C3(C)C)nc2)c1` (stereo not shown) [Example 9.22, 3-hydroxy-2,2-dimethyl-3-[5-(3-methyl-5-{[4-(trifluoromethyl)pyrimidin-2-yl]amino}phenyl)pyridin-2-yl]cyclopentanecarboxylic acid], the pIC50 was greater than 7.00.

`Cc1cc(Nc2nccc(C)n2)cc(-c2ccc(C(C)(O)[C@H]3CC[C@H](C(=O)O)CC3)nc2)c1` (stereo partly drawn) [Example 9.23, trans-4-[1-hydroxy-1-(5-{3-methyl-5-[(4-methylpyrimidin-2-yl)amino]phenyl}pyridin-2-yl)ethyl]cyclohexanecarboxylic acid]: the pIC50 is greater than 7.00.

The same experiment, now with this note: recombinant GST-hSYK, 25 μM ATP, HTRF; read-out: IC50 (inhibition of human Syk activity).
Regarding `Cc1cc(Nc2nccc(C(F)(F)F)n2)cc(-c2ccc(C(C)(O)CO)nc2)c1` (stereo not shown) [Example 9.1, 2-[5-(3-Methyl-5-{[4-(trifluoromethyl)pyrimidin-2-yl]amino}phenyl)pyridin-2-yl]propane-1,2-diol], the pIC50 was 7.75.

Source of the values: patent US9376418B2, “Substituted pyridine spleen tyrosine kinase (SYK) inhibitors” (Merck Sharp & Dohme Corp., priority 2012, dated 2016).
